The test system of one data set is PS-mutant MEFs. Briefly: Cinnamycin sensitivity, live/dead assay in MEFs. Conditions: PS-mutant MEFs vs. control MEFs; 1 μM cinnamycin for 10 min at 37° C., live/dead assay (FIG. 41D). In kind it is cell-based, mouse. The method, then: FIG. 41. Phospholipid synthesis in MEFs. FIG. 41A: Synthesis of PtdSer and PtdEtn after 3H-Ser labeling for the indicated times (hours) (n=3). FIG. 41B: Pulse-chase. MEFs labeled for 1 h with 3H-Ser; chase with cold Ser (n=3). FIG. 41C: Phospholipid synthesis in crude mitochondria (n=3 or 4) Error bars, SE; p<0.05. FIG. 41D: Cinnamycin sensitivity in MEFs. Left: Live/dead assay (1 μM cinnamycin for 10 min at 37° C.). Right: Cinnamycin-sensitivity assay (10 min at 37° C.).
AD patients have aberrant phospholipid profiles, both in fibroblasts and in brain (Pettegrew et al., (2001) Neurochem. Res. 26, 771-782; Murphy et al., (2006) Brain Res. Bull. 69, 79-85). PtdSer and PtdEtn are exported to the inner leaflet of the plasma membrane (Vance (2008) J. Lipid Res. 49, 1377-1387). […] Both the 3H-Ser and cinnamycin results are relevant to the pathogenesis of AD.
Cinnamycin sensitivity assays. To measure cinnamycin binding (Emoto et al. (1999) Proc. Natl. Acad. Sci. USA 96:12400-12405), cells are incubated with 125I-labeled streptavidin complexed with cinnamycin (Ro 09-0198) peptide complex (1251-SA-Cin; 50,000 cpm/ml; Sigma) for 1 h at 39.5° C. The radioactivities of 125I-SA-Cin bound to the cells is analyzed by bioimage analyzer. […] Viability will be measured by “live/dead” assay (Molecular Probes).

The test system of another data set is human erythrocytes. Conditions: incubation time ~2 min, 37° C., read-out: LC50 (concentration to kill 50% of the cells); cited from earlier work.
For data set [1], the system named is fibroblasts from FAD patients with pathogenic mutations in PS1 and from sporadic AD (SAD) patients. Briefly: Cinnamycin sensitivity, Live/Dead assay in patient fibroblasts. In kind it is cell-based, human. The conditions noted are these: 1 μM cinnamycin for 10 min at 37° C.; fibroblasts from SAD patients (FIG. 43). The procedure:
FIG. 43. Cinnamycin sensitivity in fibroblasts from FAD patients with pathogenic mutations in PS1 (PS1) and from sporadic AD (SAD) patients. Cells were treated with 1 μM cinnamycin for 10 min at 37° C., and viabitlity was monitored by Live/Dead assay.

Another data set concerns neuroblastoma cells. Conditions: cited from earlier work.
For the next data set, the target named is GSK3B (Homo sapiens, UniProt P49841). Conditions: cited from earlier work.
GSK3B, sequence (P49841 whole entry, species assumed): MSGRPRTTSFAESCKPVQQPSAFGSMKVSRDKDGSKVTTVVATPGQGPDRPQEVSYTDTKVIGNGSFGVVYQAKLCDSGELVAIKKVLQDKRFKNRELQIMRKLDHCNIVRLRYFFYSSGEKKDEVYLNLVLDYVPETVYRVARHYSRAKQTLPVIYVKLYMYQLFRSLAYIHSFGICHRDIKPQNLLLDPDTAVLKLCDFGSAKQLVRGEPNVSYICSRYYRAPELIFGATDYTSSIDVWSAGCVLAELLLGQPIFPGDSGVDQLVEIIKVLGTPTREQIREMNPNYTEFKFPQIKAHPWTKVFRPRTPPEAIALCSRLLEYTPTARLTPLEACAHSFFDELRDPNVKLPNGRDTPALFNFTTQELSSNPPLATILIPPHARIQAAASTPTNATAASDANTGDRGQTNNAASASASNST

As to cinnamycin, in the data set with PS-mutant MEFs, the “Sensitivity to cinnamycin vs. controls” value is “more sensitive”. The CC50 in the data set on human erythrocytes was around 1000 µM. Also, in data set [1], the “Cinnamycin sensitivity (viability by Live/Dead assay)” value is “cinnamycin sensitivity in the SAD patients”.

On to `O=C1NC(=O)C(c2ccccc2[N+](=O)[O-])=C1Nc1ccc(O)c(Cl)c1` [SB415286], for which, in the data set with neuroblastoma cells, the “Effect on neurite outgrowth” value was “inhibit neurite outgrowth”. Consider `Cn1sc(=O)n(Cc2ccccc2)c1=O` [TDZD-8], for which the “Effect on GSK3B activity” value on GSK3B is given as “inhibit GSK3B activity”.

(Values after patent US20110256565A1, “METHODS FOR DIAGNOSIS AND TREATMENT OF NEURODEGENERATIVE DISEASES OR DISORDERS” (priority 2008, published 2011).)
